Laboratory results taken from patent US20090181898A1, “ABUSE-RESISTANT A[…]” (SHIRE LLC, priority 2002, published 2009).
Marks after values point to notes of the source that are not given here.

Experiments:
[1] = Stability under concentrated conditions (concentrated HCl, 10 N NaOH, elevated temperature)
[2] = Stability under acidic conditions; conditions: for d-amphetamine content released: reflux; for d-amphetamine released: acids; for Hydrolysis: reflux in concentrated HCl
[3] = Serum and brain tissue levels following oral administration (LC/MS/MS); conditions: rat, 5 mg/kg d-amphetamine base
[4] = Stability under treatment with commercially available acids and bases; format: physicochemical; conditions: 20° C.
Protocol: For acids and bases (Table 59), 10 mg of Lys-Amp was mixed with 2 mL of each stock solution, and the solution was shaken at 20° C. For enzyme treatment (Table 60), 10 mg Lys-Amp was mixed with 5 mL of each enzyme cocktail, and the solution was shaken at 37° C. […] Many of the commercially available reagents also contained various solvents and/or surfactants.
Unless otherwise indicated, solutions were used directly from the container and were combined with neat Lys-Amp solid. Lewis Red Devil® Lye, Enforcer Drain Care® Septic Treatment, and Rid-X® Septic Treatment were prepared as saturated solutions in H2O. Enzymes used were purchased from Sigma and directly dissolved in water (3 mg/mL pepsin, 10 mg/mL pancreatin, 3 mg/mL pronase, 3 mg/mL esterase), while enzyme-containing nutraceuticals such as Omnigest® and VitälZym® were first either crushed or opened (1 tablet or capsule per 5 mL of H2O).

[5] = Oral bioavailability of L-lysine-d-amphetamine dimesylate at various doses 1.5-60 mg/kg (ELISA); conditions: rat
Protocol: The mean plasma concentrations for 1.5, 3, and 6 mg/kg are shown in Table 6, Table 7, and Table 8, respectively.

[6] = 10 N NaOH, elevated temperature
[7] = conc. HCl, about 90° C. for 1 hour, 0.4 mg/mL

Compound: CC(Cc1ccccc1)NC(=O)C(N)CCCCN [L-lysine-d-amphetamine, 2,6-diaminohexanoic acid-(1-methyl-2-phenylethyl)-amide]
- % AUC Lys-Amp (HPLC) [1, 6]: 99 % AUC
- % AUC d-amphetamine (HPLC) [1, 6]: <1 % AUC
- % AUC Lys-Amp (HPLC) [1, 7]: 96 % AUC
- % AUC d-amphetamine (HPLC) [1, 7]: 4 % AUC
- d-amphetamine released under concentrated conditions ([1]; concentrated HCl, about 90° C., 1 hour, HPLC): only a minimal amount
- d-amphetamine content released ([2]; 50% sulfuric acid): 59%
- d-amphetamine released ([2]; 90° C.): only a limited amount
- d-amphetamine released ([2]; ambient temperature): only a limited amount
- d-amphetamine content released ([2]; concentrated hydrochloric acid): 85%
- Stability ([2]; reflux in concentrated H2SO4, 2 hours): complete decomposition
- Hydrolysis ([2]; 5 hours): 28%
- Hydrolysis ([2]; 22 hours): 76%
- Intact conjugate in brain tissue [3]: not detected
- Intact conjugate in serum [3]: present in appreciable amounts
- Hydrolysis by commercial acids and bases ([4]; up to 24 h): ineffective
- d-amphetamine release ([4]; Miracle-Gro®): 7%
- d-amphetamine release ([4]; Olympic® Deck Cleaner): 4%

Compound: d-amphetamine
- AUC of d-amphetamine ([5]; 3 mg/kg): 587 ng·h/mL
- Cmax of d-amphetamine ([5]; 3 mg/kg): 141 ng/mL
- Tmax of d-amphetamine ([5]; 3 mg/kg): 60 min
- Tmax, Percent (of Amp) ([5]; 3 mg/kg): 100%
- Mean plasma amphetamine concentration ([5]; 3 mg/kg, 0 h): 0 ng/mL
- Mean plasma amphetamine concentration ([5]; 3 mg/kg, 0.5 h): 107 ng/mL
- Mean plasma amphetamine concentration ([5]; 3 mg/kg, 1 h): 121 ng/mL
- Mean plasma amphetamine concentration ([5]; 3 mg/kg, 3 h): 91 ng/mL
- Mean plasma amphetamine concentration ([5]; 3 mg/kg, 5 h): 62 ng/mL
- Mean plasma amphetamine concentration ([5]; 3 mg/kg, 8 h): 19 ng/mL
- AUC of d-amphetamine ([5]; 6 mg/kg): 807 ng·h/mL
- Cmax of d-amphetamine ([5]; 6 mg/kg): 205 ng/mL
- Tmax of d-amphetamine ([5]; 6 mg/kg): 33.8 min
- Tmax, Percent (of Amp) ([5]; 6 mg/kg): 100%
- Mean plasma amphetamine concentration ([5]; 6 mg/kg, 0 h): 0 ng/mL
- Mean plasma amphetamine concentration ([5]; 6 mg/kg, 0.5 h): 186 ng/mL
- Mean plasma amphetamine concentration ([5]; 6 mg/kg, 1 h): 167 ng/mL
- Mean plasma amphetamine concentration ([5]; 6 mg/kg, 3 h): 111 ng/mL
- Mean plasma amphetamine concentration ([5]; 6 mg/kg, 5 h): 78 ng/mL
- Mean plasma amphetamine concentration ([5]; 6 mg/kg, 8 h): 35 ng/mL
- AUC of d-amphetamine ([5]; 12 mg/kg): 2,738 ng · h/ml
- Cmax of d-amphetamine ([5]; 12 mg/kg): 621 ng/mL
- Tmax of d-amphetamine ([5]; 12 mg/kg): 56.3 min
- Tmax, Percent (of Amp) ([5]; 12 mg/kg): 100%
- Mean plasma amphetamine concentration ([5]; 12 mg/kg, 0.5 h): 621 ng/mL
- Mean plasma amphetamine concentration ([5]; 12 mg/kg, 1 h): 512 ng/mL
- Mean plasma amphetamine concentration ([5]; 12 mg/kg, 3 h): 376 ng/mL
- Mean plasma amphetamine concentration ([5]; 12 mg/kg, 5 h): 314 ng/mL
- Mean plasma amphetamine concentration ([5]; 12 mg/kg, 8 h): 103 ng/mL
- Cmax of d-amphetamine ([5]; 30 mg/kg): 3,726 ng/ml
- AUC of d-amphetamine (0-5 h) ([5]; 30 mg/kg, 0-5 h): 12,623* ng · h/ml
- Mean plasma amphetamine concentration ([5]; 30 mg/kg, 0.5 h): 2,583 ng/ml
- Mean plasma amphetamine concentration ([5]; 30 mg/kg, 1 h): 3,162 ng/ml
- Mean plasma amphetamine concentration ([5]; 30 mg/kg, 3 h): 2,620 ng/ml
- Mean plasma amphetamine concentration ([5]; 30 mg/kg, 5 h): 1,535 ng/ml
- Mean plasma amphetamine concentration ([5]; 30 mg/kg, 8 h): 164 ng/mL
- Cmax of d-amphetamine ([5]; 60 mg/kg): 4,101 ng/ml
- AUC of d-amphetamine (0-[…]) ([5]; 60 mg/kg, 0-[…]): 5,081** ng · h/ml
- Mean plasma amphetamine concentration ([5]; 60 mg/kg, 0.5 h): 3,566 ng/ml
- Mean plasma amphetamine concentration ([5]; 60 mg/kg, 1 h): 3,556 ng/ml
- AUC of d-amphetamine ([5]; […]): 481 ng·h/mL
- Cmax of d-amphetamine ([5]; […]): 133 ng/mL
- Tmax of d-amphetamine ([5]; […]): 56.3 min
- Tmax, Percent (of Amp) ([5]; […]): 100%
- Mean plasma amphetamine concentration ([5]; […], 0 h): 0 ng/mL
- Mean plasma amphetamine concentration ([5]; […], 0.5 h): 126 ng/mL
- Mean plasma amphetamine concentration ([5]; […], 1 h): 101 ng/mL
- Mean plasma amphetamine concentration ([5]; […], 3 h): 66 ng/mL
- Mean plasma amphetamine concentration ([5]; […], 5 h): 40 ng/mL
- Mean plasma amphetamine concentration ([5]; […], 8 h): 17 ng/mL
